For 38 molecules, EC50 results are on record in patent US9745310B2 (SK BIOPHARMACEUTICALS CO., LTD., priority 2015, dated 2017).

Broadly, the EC50 is the concentration needed to bring the measured effect to its halfway point.

Sequence of human mGluR5 receptor (P41594 21-1212): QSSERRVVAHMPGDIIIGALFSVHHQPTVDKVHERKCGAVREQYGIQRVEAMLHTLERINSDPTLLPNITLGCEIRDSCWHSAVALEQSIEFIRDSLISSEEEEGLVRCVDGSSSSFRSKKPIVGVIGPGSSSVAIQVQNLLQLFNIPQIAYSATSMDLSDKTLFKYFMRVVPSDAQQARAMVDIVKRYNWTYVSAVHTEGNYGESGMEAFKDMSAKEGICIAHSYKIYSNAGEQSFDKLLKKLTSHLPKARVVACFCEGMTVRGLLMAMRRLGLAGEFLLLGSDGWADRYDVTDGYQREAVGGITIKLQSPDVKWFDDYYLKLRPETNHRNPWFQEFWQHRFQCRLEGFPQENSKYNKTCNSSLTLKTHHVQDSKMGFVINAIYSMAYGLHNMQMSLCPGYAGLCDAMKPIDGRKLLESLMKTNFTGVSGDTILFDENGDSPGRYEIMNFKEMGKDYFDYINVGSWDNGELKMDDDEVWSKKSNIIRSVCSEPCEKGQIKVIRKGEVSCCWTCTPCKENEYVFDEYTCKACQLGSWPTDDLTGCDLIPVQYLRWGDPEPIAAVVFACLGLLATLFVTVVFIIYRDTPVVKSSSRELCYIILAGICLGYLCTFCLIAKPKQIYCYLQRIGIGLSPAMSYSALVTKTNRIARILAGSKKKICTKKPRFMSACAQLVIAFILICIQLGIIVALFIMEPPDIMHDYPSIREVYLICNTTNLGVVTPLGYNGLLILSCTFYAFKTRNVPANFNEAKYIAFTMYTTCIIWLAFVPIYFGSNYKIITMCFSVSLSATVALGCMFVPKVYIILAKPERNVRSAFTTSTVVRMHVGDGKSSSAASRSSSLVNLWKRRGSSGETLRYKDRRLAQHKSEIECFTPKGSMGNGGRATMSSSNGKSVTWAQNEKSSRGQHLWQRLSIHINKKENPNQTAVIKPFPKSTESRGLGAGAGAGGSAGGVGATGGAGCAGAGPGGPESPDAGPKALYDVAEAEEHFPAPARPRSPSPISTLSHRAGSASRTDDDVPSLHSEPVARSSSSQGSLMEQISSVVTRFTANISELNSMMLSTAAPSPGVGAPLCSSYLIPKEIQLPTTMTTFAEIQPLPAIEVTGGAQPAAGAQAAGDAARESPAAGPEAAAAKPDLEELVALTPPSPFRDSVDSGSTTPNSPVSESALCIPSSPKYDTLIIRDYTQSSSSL

This experiment addresses human mGluR5 receptor (Homo sapiens (Human), UniProt P41594). In words: Calcium influx assay based on fluorescence (mGluR5 PAM activity). Particulars: human mGluR5 receptor-overexpressed HEK293 cell line; L-glutamate EC20; Fluo-4, FLIPR. Here is the method: Efficacy as a positive allosteric modulator (PAM) of mGluR5 of the compounds of the Examples was tested as follows:
Calcium Influx Assay Based on Fluorescence
Ca^2+ (calcium) influx assay is an experiment for measuring the activity of a positive allosteric modulator of mGluR5 receptor in which human mGluR5 receptor-overexpressed HEK293 cell line is used. The day before the experiment, cells were prepared in a cell culture medium (DMEM, 5% FBS) with the density of 80,000/well, and 100 μl of cells were dispensed into each well of a poly-D-lysine-coated 96-well plate. Cells were incubated in a 5% CO2, 37° C. incubator. The next day, the cell culture medium was removed from the plate, and 100 μl of 1× Fluo-4 calcium indicator diluted with a buffer (1× Hank's balanced salt solution, 20 mM HEPES, 2.5 mM probenecid) were added to each well and incubated at 37° C. for 1 hour. The compound stock solutions were prepared in 100% DMSO, and the compounds were serially diluted with a ¼ dilution to 6 or 7 concentrations (final concentration was 10 μM to 10 nM). The diluted compound solutions were added to the plate with 0.1 to 0.2% of final DMSO concentration. 1 hour after the addition of Fluo-4 calcium indicator, L-glutamate (EC20 concentration) and the test compound solutions were added to the plate, and Ca^2+ reaction was then measured by FLIPR at room temperature. The activity of the compounds was standardized on the basis of the results of maximum value-minimum value of fluorescent reaction, and the activity value was calculated on the basis that no activity on glutamate EC20 is 0% and the reaction to glutamate maximum value is 100%.
Consider `Fc1cccc(OCc2cn3cc(-c4ccc(F)nc4F)cnc3n2)c1` [Example 71, 6-(2,6-difluoro-3-pyridyl)-2-[(3-fluorophenoxy)methyl]imidazo[1,2-a]pyrimidine], for which the EC50 was 100 to 500 nM.

For `Fc1ccc(OCc2cn3cc(-c4ccnc(F)c4)cnc3n2)cc1` [Example 62, 2-[(4-fluorophenoxy)methyl]-6-(2-fluoro-4-pyridyl)imidazo[1,2-a]pyrimidine], the EC50 is 500 to 1000 nM.

In the case of `FC(F)(F)c1cc(Cl)ccc1-c1cnc2nc(COc3ccccn3)cn2n1` [Example 189, 2-[4-chloro-2-(trifluoromethyl)phenyl]-6-(2-pyridyloxymethyl)imidazo[1,2-b][1,2,4]triazine], the EC50 was 500 to 1000 nM.

Take `Fc1ccc(-c2cnc3nc(COc4cccc(F)c4)cn3c2)cc1` [Example 54, 2-[(3-fluorophenoxy)methyl]-6-(4-fluorophenyl)imidazo[1,2-a]pyrimidine]: the EC50 lay within 100 to 500 nM.

As for `Fc1ccc(-c2cnc3nc(COc4cccnc4)cn3c2)c(F)c1` [Example 148, 6-(2,4-difluorophenyl)-2-(pyridin-3-yloxymethyl)imidazo[1,2-a]pyrimidine], the EC50 is 500 to 1000 nM.

Turning to `Fc1ccnc(OCc2cn3cc(-c4ccc(F)cc4C(F)(F)F)cnc3n2)c1` [Example 125, 2-[(4-fluoro-2-pyridyl)oxymethyl]-6-[4-fluoro-2-(trifluoromethyl)phenyl]imidazo[1,2-a]pyrimidine], the EC50 lay in the range of 100 to 500 nM.

For the molecule `Fc1cccc(OCc2cn3cc(-c4ccc(F)nc4)cnc3n2)c1` [Example 81, 2-[(3-fluorophenoxy)methyl]-6-(6-fluoro-3-pyridyl)imidazo[1,2-a]pyrimidine], the EC50 is 100 to 500 nM.

Turning to `Fc1ccc(-c2cnc3nc(COc4ccccc4)cn3n2)c(F)c1` [Example 178, 2-(2,4-difluorophenyl)-6-(phenoxymethyl)imidazo[1,2-b][1,2,4]triazine], the EC50 is 100 to 500 nM.

As for `COc1cc(Cl)ccc1-c1cnc2nc(COc3ccc(F)cc3)cn2c1` [Example 69, 6-(4-chloro-2-methoxy-phenyl)-2-[(4-fluorophenoxy)methyl]imidazo[1,2-a]pyrimidine], the EC50 was 100 to 500 nM.

For `Nc1cc(F)ccc1-c1cnc2nc(COc3ccnc(F)c3)cn2c1` [Example 176, 5-fluoro-2-[2-[(2-fluoro-4-pyridyl)oxymethyl]imidazo[1,2-a]pyrimidin-6-yl]aniline], the EC50 lay within 100 to 500 nM.

Regarding `Fc1ccc(-c2cnc3nc(COc4ccccc4)cn3c2)cc1` [Example 8, 6-(4-fluorophenyl)-2-phenoxymethylimidazo[1,2-a]pyrimidine], the EC50 fell in the range of 100 to 500 nM.

For `Nc1cc(-c2cnc3nc(COc4ccc(F)cc4)cn3c2)ccc1F` [Example 70, 2-fluoro-5-[2-[(4-fluorophenoxy)methyl]imidazo[1,2-a]pyrimidin-6-yl]aniline], the EC50 lay in the range of 100 to 500 nM.

Regarding `Oc1cc(F)ccc1-c1cnc2nc(COc3cccc(F)c3)cn2c1` [Example 57, 5-fluoro-2-[2-[(3-fluorophenoxy)methyl]imidazo[1,2-a]pyrimidin-6-yl]phenol], the half-maximal effective concentration (EC50) was 100 to 500 nM.

`Oc1cc(-c2cnc3nc(COc4cccc(F)c4)cn3c2)ccc1F` [Example 43, 6-(4-fluoro-3-hydroxyphenyl)-2-(3-fluorophenoxymethyl)-imidazo[1,2-a]pyrimidine]: the EC50 lay within 100 to 500 nM.

For the molecule `Fc1ccc(OCc2cn3cc(-c4cnccc4Cl)cnc3n2)cc1` [Example 87, 6-(4-chloro-3-pyridyl)-2-[(4-fluorophenoxy)methyl]imidazo[1,2-a]pyrimidine], the EC50 is 500 to 1000 nM.

In the case of `Fc1ccc(-c2cnc3nc(COc4ccccn4)cn3c2)c(C(F)(F)F)c1` [Example 113, 6-[4-fluoro-2-(trifluoromethyl)phenyl]-2-(2-pyridyloxymethyl)imidazo[1,2-a]pyrimidine], the EC50 lay within 100 to 500 nM.

For the molecule `NC(=O)OCc1cc(F)ccc1-c1cnc2nc(COc3ccccn3)cn2c1` [Example 195, [5-fluoro-2-[2-(2-pyridyloxymethyl)imidazo[1,2-a]pyrimidin-6-yl]phenyl]methyl carbamate], the EC50 was in the range of 100 to 500 nM.

In the case of `Cc1cc(F)ccc1-c1cnc2nc(COc3cncc(Cl)c3)cn2c1` [Example 160, 6-(4-fluoro-2-methylphenyl)-2-(5-chloropyridin-3-yloxymethyl)imidazo[1,2-a]pyrimidine], the EC50 fell in the range of 500 to 1000 nM.

`[2H]c1c([2H])c([2H])c(OCc2cn3cc(-c4ccc(F)cc4)cnc3n2)c([2H])c1[2H]` [Example 59, 6-(4-fluorophenyl)-2-[(2,3,4,5,6-pentadeuteriophenoxy)methyl]imidazo[1,2-a]pyrimidine]: the EC50 was 100 to 500 nM.

Take `Cc1ccccc1-c1cnc2nc(COc3ccc(F)cn3)cn2c1` [Example 126, 2-[(5-fluoro-2-pyridyl)oxymethyl]-6-(o-tolyl)imidazo[1,2-a]pyrimidine]: the EC50 lay in the range of 100 to 500 nM.

Take `Fc1ccc(OCc2cn3cc(-c4ccc(C(F)(F)F)nc4)cnc3n2)cc1` [Example 65, 2-[(4-fluorophenoxy)methyl]-6-[6-(trifluoromethyl)-3-pyridyl]imidazo[1,2-a]pyrimidine]: the EC50 is 100 to 500 nM.

For `Cc1ccncc1-c1cnc2nc(COc3ccc(F)cc3)cn2c1` [Example 78, 2-[(4-fluorophenoxy)methyl]-6-(4-methyl-3-pyridyl)imidazo[1,2-a]pyrimidine], the EC50 was 100 to 500 nM.

As to `Nc1cc(F)ccc1-c1cnc2nc(COc3ccccc3)cn2c1` [Example 27, 6-(2-amino-4-fluorophenyl)-2-phenoxymethylimidazo[1,2-a]pyrimidine], the 50% effective concentration (EC50) fell in the range of 100 to 500 nM.

Consider `Fc1cccc(OCc2cn3cc(-c4ccc(F)cc4F)cnc3n2)c1` [Example 41, 6-(2,4-difluorophenyl)-2-(3-fluorophenoxymethyl)imidazo[1,2-a]pyrimidine], for which the EC50 fell in the range of 100 to 500 nM.

Take `Cc1ccc(-c2cnc3nc(COc4ccc(F)cc4)cn3c2)c(N)c1` [Example 74, 2-[2-[(4-fluorophenoxy)methyl]imidazo[1,2-a]pyrimidin-6-yl]-5-methyl-aniline]: the half-maximal effective concentration (EC50) lay within 100 to 500 nM.

For `OCc1cc(F)ccc1-c1cnc2nc(COc3cccc(F)c3)cn2c1` [Example 96, [5-fluoro-2-[2-[(3-fluorophenoxy)methyl]imidazo[1,2-a]pyrimidin-6-yl]phenyl]methanol], the EC50 is 100 to 500 nM.

Regarding `COc1ccc(-c2cnc3nc(COc4ccccc4)cn3c2)cn1` [Example 30, 6-(6-methoxypyridin-3-yl)-2-phenoxymethylimidazo[1,2-a]pyrimidine], the EC50 was in the range of 500 to 1000 nM.

Regarding `FC(F)(F)c1ccc(-c2cnc3nc(COc4ccccn4)cn3c2)cn1` [Example 130, 2-(2-pyridyloxymethyl)-6-[6-(trifluoromethyl)-3-pyridyl]imidazo[1,2-a]pyrimidine], the EC50 is 100 to 500 nM.

Take `Nc1cc(Cl)ccc1-c1cnc2nc(COc3ccc(F)cc3)cn2c1` [Example 75, 5-chloro-2-[2-[(4-fluorophenoxy)methyl]imidazo[1,2-a]pyrimidin-6-yl]aniline]: the EC50 was 100 to 500 nM.

Regarding `Cc1ccc(-c2cnc3nc(COc4ccccn4)cn3c2)c(F)c1` [Example 117, 6-(2-fluoro-4-methyl-phenyl)-2-(2-pyridyloxymethyl)imidazo[1,2-a]pyrimidine], the EC50 lay within 100 to 500 nM.

`Oc1cc(F)ccc1-c1cnc2nc(COc3cncc(F)c3)cn2c1` [Example 156, 6-(4-fluoro-2-hydroxyphenyl)-2-(5-fluoropyridin-3-yloxymethyl)imidazo[1,2-a]pyrimidine]: the EC50 lay in the range of 100 to 500 nM.

As to `Cc1c(F)cccc1-c1cnc2nc(COc3ccccn3)cn2n1` [Example 187, 2-(3-fluoro-2-methyl-phenyl)-6-(2-pyridyloxymethyl)imidazo[1,2-b][1,2,4]triazine], the EC50 fell in the range of 100 to 500 nM.

Turning to `OCc1cc(F)ccc1-c1cnc2nc(COc3ccc(F)cn3)cn2c1` [Example 139, [5-fluoro-2-[2-[(5-fluoro-2-pyridyl)oxymethyl]imidazo[1,2-a]pyrimidin-6-yl]phenyl]methanol], the EC50 lay in the range of 500 to 1000 nM.

On to `Fc1ccc(OCc2cn3cc(-c4cncc(Cl)c4)cnc3n2)cc1` [Example 88, 6-(5-chloro-3-pyridyl)-2-[(4-fluorophenoxy)methyl]imidazo[1,2-a]pyrimidine], for which the EC50 was 100 to 500 nM.

Turning to `Fc1ccc(OCc2cn3cc(-c4ccncc4Cl)cnc3n2)cc1` [Example 49, 6-(3-chloropyridin-4-yl)-2-(4-fluorophenoxymethyl)imidazo[1,2-a]pyrimidine], the EC50 lay in the range of 500 to 1000 nM.

Take `Cc1cccc(C)c1-c1cnc2nc(COc3ccc(F)cc3)cn2c1` [Example 50, 6-(2,6-dimethylphenyl)-2-(4-fluorophenoxymethyl)imidazo[1,2-a]pyrimidine]: the concentration giving a half-maximal response (EC50) fell in the range of 500 to 1000 nM.

`Cc1cc(F)ccc1-c1cnc2nc(COc3cccnc3)cn2c1` [Example 149, 6-(4-fluoro-2-methylphenyl)-2-(pyridin-3-yloxymethyl)imidazo[1,2-a]pyrimidine]: the EC50 fell in the range of 100 to 500 nM.

Turning to `Cc1cc(-c2cnc3nc(COc4ccccc4)cn3c2)cnc1F` [Example 39, 6-(6-fluoro-5-methyl-3-pyridyl)-2-phenoxymethylimidazo[1,2-a]pyrimidine], the EC50 is 100 to 500 nM.
